Assay results published in paper PMC6010047, “Design, synthesis and biological evaluation of novel hydroxy-phenyl-1H-benzimidazoles as radical scavengers and UV-protective agents” (Journal of Enzyme Inhibition and Medicinal Chemistry, 2017).
Read-outs that look alike come from different tables or passages of the source.

Key:
NCTC-2544 cells [1] = test system: NCTC-2544 cells
Method: (§1) An immortalized, nontumorigenic cell line of human keratinocytes (NCTC-2544) was grown in a DMEM medium (Sigma-Aldrich Milan, Italy), supplemented with 115 units/mL of penicillin G, 115 μg/mL streptomycin, and 10% fetal calf serum (Invitrogen, Milan, Italy). Individual wells of a 96-well tissue culture microtiter plates (Falcon, Becton–Dickinson) were inoculated with 100 μL of complete medium containing 5 × 10^3 NCTC-2544. The plates were incubated at 37 °C in a humidified (5% CO2) incubator for 18 h prior to the experiments.
(§2) After medium removal, 100 μL of the drug solution, dissolved in DMSO and diluted in DMEM medium, was added to each well, incubated at 37 °C for 72 h. Final DMSO concentration never exceeded 0.5%. Cell viability was assayed by the MTT (3–(4,5-dimethylthiazol-2-yl)-2,5 diphenyl tetrazolium bromide) test as previously described by Mosmann[27].
(§3) The tests were conducted using a specific cell line of human keratinocytes (NCTC-2544). To assess cell viability, in the presence of the study compounds, before and after the irradiation, the MTT assay was performed[27]. The cytotoxicity was checked after 72 h from the incubation of the keratinocytes with compounds; moreover, the same experiments were performed in the presence of the parent PBSA.

NCTC-2544 cells [2] = experiment: Cytotoxicity, MTT test, 72 h; details: read-out: IC50 cytotoxicity; NCTC-2544 human keratinocytes, 72 h, MTT
Method: as §1, §2, §3

[3] = Photostability of formulations under solar simulator, HPLC; assay type: physicochemical; details: 3% formulation; for Residual product (photostability): 2 mg/cm^2, solar simulator 1 h, HPLC
Method: HPLC analysis was performed using an Agilent 1100 Series HPLC System equipped with a G1315A DAD, and with a Hydro-RP C18 Synergi 80 Å column (4.6 × 150 mm, 4 μm) from Phenomenex, maintained at 25 °C during all the time of the analysis. The mobile phase consisted of water (0.01 M H3PO4) (solvent A) and acetonitrile (0.01 M H3PO4) (solvent B). • PBSA and 3: the determination was carried out in isocratic condition, A: 91%/B: 9%. Separation was monitored with absorbance detection at λmax of the molecule ±8 nm. The flow rate was 1.0 mL/min. • […]: the determination was carried out in isocratic condition, A: 84%/B: 16%. Separation was monitored with absorbance detection at λmax of the molecule ±8 nm. The flow rate was 1.0 mL/min
The solar simulator emission was maintained at 500 W/m^2. A portion of cosmetic formulation containing the sunscreen molecule (3%, w/w) was transferred onto the bottom of a beaker to gain a cosmetic mount of 2 mg/cm^2 and then was irradiated for 1 h with the solar simulator. After irradiation the beaker was removed and its content quantitatively transferred into a 50 mL calibrated flask with methanol and the remaining sunscreen concentration was determined by HPLC as described above. All samples were protected from light both before and after irradiation, the degree of photodegradation was evaluated by comparing the areas of the irradiated samples, with those of the unirradiated preparations.
Stability and photostability tests were performed only on compounds that as provided with the best antioxidant capacity together with a good photoprotection activity (i.e. 3, and 12). At first, the effective concentration of filtering molecules was verified in the formulation by HPLC. Samples of the formulations (2 mg/cm^2) were spread on a PMMA plate, for each compound including PBSA, and placed under a solar simulator for one hour before repeating HPLC analysis.

Compound	Residual product (photostability) [3]	other results
2-(2,4-Dihydroxy-phenyl)-1H-benzimidazole [Compound 9]	–	IC50 (NCTC-2544 cells [1]): > 50 µM
2-(2-Hydroxy-phenyl)-1H-benzimidazole [Compound 10]	–	IC50 (NCTC-2544 cells [2]): > 50 µM
O=S(=O)(O)c1ccc2[nH]c(-c3ccc(O)c(O)c3)nc2c1 [Compound 3, 2-(3,4-Dihydroxy-phenyl)-1H-benzimidazole-5-sulfonic acid]	94.9% ± 0.8%	–
O=C(O)c1ccc2[nH]c(-c3ccc(O)c(O)c3)nc2c1 [Compound 12, 2-(3,4-Dihydroxy-phenyl)-1H-benzimidazole-5-carboxylic acid]	98.4% ± 0.9%	degradation rate (photostability) ([3]; solar simulator 1 h): less than 2%
O=S(=O)(O)c1ccc2[nH]c(-c3ccccc3)nc2c1 [PBSA, 2-phenyl-1H-benzimidazole-5-sulfonic acid, reference compound]	96.7% ± 1.8%	–
